Columns and labels:
[1] = tested on: bovine gelatin; assay: Young's Modulus measurement (Instron) of irradiated bovine gelatin strips; settings: bovine gelatin 25% wt, ICG 1 mg/mL, TEOA 90 mM; 810 nm 200 mW LED; 3 and 5 minute irradiations compiled
Method: All Young's Modulus values were determined using an Instron equipped with screw side action tensile grips and a load cell rated for max 100 N. Rates of pulling were between 3 mm/minute and 5 mm/minute. The software calculated the Young's Modulus from the force vs. distance/time.
Bovine gelatin sheets were made by heating the gelatin in Dulbecco's buffer to 75° C. for 30 minutes in order to dissolve the dried gelatin and make a viscous solution. Neat TEOA and a concentrated stock solution of ICG in deionized water were added to make the final concentrations: bovine gelatin=25% wt, TEOA=90 mM, and ICG=1 mg/mL. This solution was pipetted hot into a plexiglass mold with a Teflon spacer to form a sheet of the following dimensions: 14 cm×6 cm×1 mm. It was stored overnight in a 4° C. refrigerator to solidify. Twelve 1 cm×6 cm strips were cut from the solidified gel for triplicate analysis of 4 conditions: no irradiation, 3 minute, 5 minute, and 10 minute irradiations. An 810 nm 200 mW LED (Thor Labs) was used for treatment of the gel strip. The LED with a collimator produced a 1 cm×1 cm irradiation area, which was used to treat 1 cm portions of the gelatin strip at a time. For example, an initial irradiation was applied for 3 minutes on 1 cm of the gel, then the gel was shifted 1 cm to a new, untreated portion. […]

[2] = tested on: sclera of enucleated young rabbit eyes; assay: Eye expansion test - whole eye treatment, scleral area analysis; settings: for reduction in expansion, treated vs untreated: ICG with sodium iodide (NaI) additive in D2O; for reduction in expansion, fully treated eyes vs NIR light only treated eyes: ICG/NaI/D2O with NIR light
Method: Enucleated young rabbit eyes were provided from collaborators at University of California, San Francisco (UCSF). These were shipped overnight and used within 1-4 days. Upon arrival, they were stored in Dulbecco's buffer in a 4° C. refrigerator until use. They were trimmed of fat and muscle to provide a smooth surface for easy identification of changes to the size. All irradiations used an 810 nm LED (Thor) set to a power of ˜200 mW.
Untreated eyes received no further modification and were stored in Dulbecco's buffer in the refrigerator until use. Eyes to be treated had their epithelial layer on the cornea removed. An ethanol-soaked Kim wipe was applied to the cornea for two minutes and then a scalpel blade was used to scrape the layer off. Removal was confirmed using a fluorescein strip and long UV light. […] The eye was placed cornea up on a damp (D2O) gauze pad and then placed on a 10 mL beaker. The LED was placed above the eye to irradiate down for 10 minutes with 5-15 drops of either the soaking solution or D2O being applied every 2 minutes to keep the sample hydrated. Once completed, the irradiation process was repeated for the reverse side of the eye (by the retina), then the eye on its side (half cornea & sclera), and finally on the reverse side of the sideways eye. This was a total of four 10 minute irradiations aimed to treat the whole eye.
The eye expansion setup followed the protocol outlined below. The eyes were placed on a stand and 30 gauge needle was inserted from underneath. The chamber was filled with Dulbecco's buffer and two different antibiotics mixtures—an ophthalmic solution of Trimethoprim Sulfate and Polymyxin B Sulfate and an ophthalmic ointment of Neomycin and Polmyxin B Sulfates and Bacitracin Zinc. A low pressure (˜22 mm Hg) was applied for one hour to equilibrate the eyes prior to applying a higher pressure (˜85 mm Hg) for the experiment. This is done by raising an IV bag to a predetermined height above the eye chamber. The higher pressure was applied from 12-36 hours (or until rupture) depending on the experiment. Two photos were taken every 15 minutes during both the low and high-pressure applications. […]
Image J was used to calculate the scleral area for comparison. […] Measured scleral areas where then converted to percent change from the initial time point (when the higher pressure was first applied). These values were averaged and standard errors calculated for comparison.
To evaluate the ability of ICG to crosslink the sclera, a similar set of eye expansion tests was performed. […] To quantify this observation, the area of the sclera was calculated using Image J for the initial and 12-hour time points (FIGS. 7(A-B)). Expansion from the initial time point was calculated and compared as a percent.

[3] = Dye solubility observations; assay type: physicochemical
Method: ICG is a NIR-absorbing heptamethine dye that has the potential of generating singlet oxygen upon irradiation and has a λmax ranging from 780-810 nm depending on the context. […] BAC along with other cationic surfactants (alkyl ammonium salts, polyoxyethylene alkyl amines, amide linked alkyl amines, alkyl imidazolines, etc.) aid in the solubility of the dye in aqueous media. […] The standard formulation used in these studies consisted of 0.05 to 5.0 mg/mL ICG and 0.01% to 0.001% BAC in solution. D2O was selected as the solvent to increase the lifetime of singlet oxygen and therefore the crosslinking capability of the species. […] Fluorinated solvents (perfluorohexane, perfluorotripentylamine, etc.) are also of interest due to their ability to dissolve more oxygen and their robust inertness.

solubility in aqueous media ([3]; BAC compared with sodium iodide): greater increases in solubility | solubility in aqueous media ([3]; with BAC and other cationic surfactant additives): enhanced solubility
Structure (SMILES): CC1(C)C(/C=C/C=C/C=C/C=C2\N(CCCCS(=O)(=O)O)c3ccc4ccccc4c3C2(C)C)=[N+](CCCCS(=O)(=O)[O-])c2ccc3ccccc3c21 [ICG, indocyanine green]
increase of the Young's Modulus, irradiated vs non-irradiated sample [1]: 26% | reduction in expansion, treated vs untreated ([2]; 12 hour time point): ~62% | reduction in expansion, treated vs untreated ([2]; 24 hour time point): 70% | reduction in expansion, fully treated eyes vs NIR light only treated eyes ([2]; 12 hour time point): ~69% | reduction in expansion, fully treated eyes vs NIR light only treated eyes ([2]; 24 hour time point): ~72%

Reference: patent US20230173071A1, “TREATMENT OF MYOPIA AND OTHER OCULAR CONDITIONS USING SINGLET OXYGEN GENERATED FROM DYES ACTIVATED BY NEAR-INFRARED LIGHT” (California Institute of Technology, priority 2018, published 2023)
